Measured values published in patent US20170354147A1, “SAFENING AMINOPYRALID COMPOSITIONS IN BRASSICA SPECIES WITH CLOPYRALID AND METHODS OF USE THEREOF” (Dow AgroSciences LLC, priority 2016, published 2017).
Several values for one entry are separate records, joined by “and”; a condition that tells them apart may be missing. Identical values can stand only once.

Tests used:
Assay type in all cases: in vivo
[1] = tested on: Aparima Gold swede (Brassica sp., BRSSS); assay: Pot trials, postemergence crop safety (visual injury) to Aparima Gold swede
Text: (§1) The following equation was used to calculate the expected activity of mixtures containing two active ingredients, A and B:
(§2) Expected=A+B−(A×B/100) • A=observed efficacy of active ingredient A at the same concentration as used in the mixture; • B=observed efficacy of active ingredient B at the same concentration as used in the mixture.
(§3) BRSOM=Brassica oleracea var. acephala subvar. Medullosa (stem kale) BRSSS=Brassica sp. (Aparima Gold swede) BRSNS-RR=Brassica napus (spring rape or Spring Argentine rape, Roundup® Ready) g ae/ha=grams acid equivalent per hectare Mean % visual injury=observed value of percent (%) injury rated visually Observed Mean % visual injury=observed value of percent (%) injury rated visually Colby predicted mean % visual injury=expected value of percent (%) injury as calculated by Colby's equation Mean % visual leafroll=observed value of percent (%) leafroll rated visually Observed Mean % visual leafroll=observed value of percent (%) leafroll rated visually Colby predicted mean % visual leafroll=expected value of percent (%) leafroll as calculated by Colby's equation Mean % visual growth inhibition=observed value of percent (%) growth inhibition rated visually Observed Mean % visual growth inhibition=observed value of percent (%) growth inhibition rated visually Colby predicted mean % visual growth inhibition=expected value of percent (%) growth inhibition as calculated by Colby's equation
(§4) Two pot trials were established at Dow AgroSciences Waireka Field Research Station, New Zealand to evaluate crop safety of herbicide treatments to two species of leafy and bulb forage brassica crops (stem kale (Brassica oleracea var. acephala subvar. medullosa, BRSOM) and Aparima Gold swede (Brassica sp., BRSSS)). Trials were designed as randomized complete blocks with five replicates. Trials were established as weed-free tolerance trials. Pot size was 10 by 10 centimeters (cm, width×length). The forage brassica crops were grown using normal cultural practices for fertilization, seeding, watering and maintenance to ensure good growth of the crops.
(§5) All herbicide treatments were applied post-emergence with applications made to the crops at the 2 to 5-leaf stage. Herbicides were applied with a belt spray chamber system with compressed air as a propellant. The sprayer utilized a flat fan spray nozzle calibrated to deliver a uniform spray pattern that provided thorough coverage of the foliage using a 200 liters per hectare (L/ha) spray volume. All treatments were applied with Uptake adjuvant (paraffinic oil/Non-Ionic Surfactant blend) at 0.5% volume per volume (v/v). Phytotoxicity to the crops was assessed visually at several intervals after application as percent overall injury, compared to an untreated control plot. The overall injury assessments were based on visual ratings of growth inhibition, leaf deformity, epinasty, and chlorosis.
(§6) Aminopyralid-triisopropanolammonium (TIPA) was applied as Tordon™ Max Herbicide (30 grams acid equivalent per liter (g ae/L) soluble (liquid) concentrate (SL)), and clopyralid-TIPA was applied as Versatill™ (300 g ae/L SL), The compositions tested, application rates employed, plant species tested, and results are given in Table 1 through Table 3.

[2] = tested on: Aparima Gold swede (Brassica sp., BRSSS); assay: Field trials Canterbury, New Zealand, postemergence crop safety (visual injury, growth inhibition) to Aparima Gold swede
Text: as §1, §2, §3
Two field trials were established in Canterbury, New Zealand to evaluate crop safety of herbicide treatments to leafy forage brassica crops (Aparima Gold swede (Brassica sp., BRSSS)). Trials were designed as randomized complete blocks with four replicates. All trials were established as weed-free tolerance trials with plot size of 3 meters (m) by 8 m (width×length). The crops were grown using normal cultural practices for fertilization, seeding, and maintenance to ensure good growth of the crop.
All herbicide treatments were applied post-emergence with applications made to the crops at the 3 to 5-leaf stage. Herbicides were applied with backpack sprayers using carbon dioxide (CO2) as a propellant. […] All treatments were applied with Uptake adjuvant (paraffinic oil/Non-Ionic Surfactant blend) at 1% v/v. Phytotoxicity to the crops was assessed visually at several intervals after application as percent overall injury, compared to an untreated control plot. The overall injury assessments were based on visual ratings of growth inhibition, leaf deformity, epinasty, and chlorosis.
Aminopyralid-TIPA was applied as Tordon™ Max Herbicide (30 g ae/L SL), and clopyralid-TIPA was applied as Versatill™ (300 g ae/L SL),

[3] = tested on: Spring Argentine canola (Brassica napus, BRSNS), Nex 1012 glyphosate-tolerant, BRSNS-RR; assay: Field trials Canada, postemergence crop safety (visual injury) to glyphosate-tolerant Spring Argentine canola
Text: as §3
Field trials were established in Canada (in Manitoba, Alberta, and Saskatchewan) to evaluate crop safety of herbicide treatments to Spring Argentine canola (Brassica napus, BRSNS). Trials were designed as randomized complete blocks with four replicates. Trials were established as weed-free crop tolerance trials with plot sizes of 2-3 meters (m) by 8-25 m (width×length). The crops were grown using normal cultural practices for fertilization, seeding, and maintenance to ensure good growth of the crop.
The overall injury assessments were based on visual ratings of growth inhibition, leaf deformity, epinasty, chlorosis and delay in maturity. Assessments were made at 8-10 days after treatment (DAT) for an initial rating, 14-17 DAT for an early-season rating, 28-32 DAT for a mid-season rating, and 42-55 DAT for a late-season rating.
Aminopyralid-triisopropanolammonium (TIPA) was applied as Milestone® (240 g ae/L SL); clopyralid-olamine was applied as Lontrel™ 360 (360 g ae/L SL); and glyphosate-dimethylammonium was applied as Vantage™ XRT (480 g ae/L SL).

[4] = tested on: stem kale (Brassica oleracea var. acephala subvar. medullosa, BRSOM); assay: Pot trials, postemergence crop safety (visual injury, leafroll) to stem kale
Text: as §1, §2, §3, §4, §5, §6

[5] = 10 g ae/ha, with Glyphosate-DMA 450 g ae/ha
[6] = 20 g ae/ha, with Glyphosate-DMA 450 g ae/ha
[7] = Glyphosate-DMA 450 g ae/ha alone (Aminopyralid-TIPA 0 g ae/ha)

Nc1cc(Cl)nc(C(=O)O)c1Cl [Aminopyralid TIPA, tris (2-hydroxypropyl)ammonium 4-amino-3,6-dichloropyridine-2-carboxylate]
Mean % Visual Injury ([1]; 3DAA1, 60 g ae/ha): 6.8% | Mean % Visual Injury ([1]; 7DAA1, 60 g ae/ha): 9.6% | Mean % Visual Injury ([1]; 15DAA1, 60 g ae/ha): 15.4% | Mean % Visual Injury ([1]; 28DAA1, 60 g ae/ha): 15.6% | Mean % Visual Growth Inhibition ([2]; 13DAA1, 60 g ae/ha): 28.8% and 28.9% | Mean % Visual Injury ([2]; 13DAA1, 60 g ae/ha): 22.5% | Mean % Visual Injury ([2]; 22DAA1, 60 g ae/ha): 28.8% | Mean % Visual Growth Inhibition ([2]; 28DAA1, 60 g ae/ha): 45.0% | Mean % Visual Injury ([2]; 28DAA1, 60 g ae/ha): 38.8% | Mean % Visual Growth Inhibition ([2]; 56DAA1, 60 g ae/ha): 8.8% | Mean % Visual Injury Early (14-17) DAT [3, 5]: 1.9% | Mean % Visual Injury Initial (8-10 DAT) [3, 5]: 2.8% | Mean % Visual Injury Late (42-55 DAT) [3, 5]: 1.5% | Mean % Visual Injury Mid (28-32 DAT) [3, 5]: 2.3% | Mean % Visual Injury Early (14-17) DAT [3, 6]: 5% | Mean % Visual Injury Initial (8-10 DAT) [3, 6]: 5% | Mean % Visual Injury Late (42-55 DAT) [3, 6]: 0.6% | Mean % Visual Injury Mid (28-32 DAT) [3, 6]: 5.6%

O=C(O)c1nc(Cl)ccc1Cl [Clopyralid TIPA, (2RS,2′RS,2″RS)-tris(2-hydroxypropyl)ammonium 3,6-dichloropyridine-2-carboxylate]
Mean % Visual Injury ([1]; 3DAA1, 90 g ae/ha): 2.2% | Mean % Visual Injury ([1]; 7DAA1, 90 g ae/ha): 0.4% | Mean % Visual Injury ([1]; 15DAA1, 90 g ae/ha): 0.0% | Mean % Visual Injury ([1]; 28DAA1, 90 g ae/ha): 0.0% | Mean % Visual Leafroll ([4]; 1DAA1, 90 g ae/ha): 0.0% | Mean % Visual Leafroll ([4]; 1DAA1, 180 g ae/ha): 0.0% | Mean % Visual Leafroll ([4]; 1DAA1, 360 g ae/ha): 0.0% | Mean % Visual Leafroll ([4]; 4DAA1, 90 g ae/ha): 0.0% | Mean % Visual Leafroll ([4]; 4DAA1, 180 g ae/ha): 0.0% | Mean % Visual Injury ([4]; 7DAA1, 45.0 g ae/ha): 0.0% and 0.7% | Mean % Visual Injury ([4]; 7DAA1, 90.0 g ae/ha): 0.0% and 0.7% | Mean % Visual Injury ([4]; 7DAA1, 180.0 g ae/ha): 0.0% and 0.7% | Mean % Visual Injury ([4]; 7DAA1, 360.0 g ae/ha): 0.0% and 0.7% | Mean % Visual Injury ([4]; 15DAA1, 22.5 g ae/ha): 0.0% | Mean % Visual Injury ([4]; 15DAA1, 45 g ae/ha): 0% | Mean % Visual Injury ([4]; 15DAA1, 90 g ae/ha): 0% | Mean % Visual Leafroll ([4]; 15DAA1, 90 g ae/ha): 0.0% | Mean % Visual Leafroll ([4]; 15DAA1, 180 g ae/ha): 0.0% | Mean % Visual Injury ([4]; 15DAA1, 180.0 g ae/ha): 0.0% | Mean % Visual Leafroll ([4]; 15DAA1, 360 g ae/ha): 0.0% | Mean % Visual Injury ([4]; 15DAA1, 360.0 g ae/ha): 0.0% | Mean % Visual Injury ([4]; 28DAA1, 90.0 g ae/ha): 0.0% | Mean % Visual Injury ([4]; 28DAA1, 360 g ae/ha): 0% | Mean % Visual Leafroll ([4]; 28DAA1, 360 g ae/ha): 0.0% | Mean % Growth Inhibition ([2]; 13DAA1, 45 g ae/ha): 2.8% | Mean % Visual Injury ([2]; 13DAA1, 45 g ae/ha): 0.8% | Mean % Growth Inhibition ([2]; 13DAA1, 90 g ae/ha): 8.8% | Mean % Growth Inhibition ([2]; 13DAA1, 180 g ae/ha): 7.5% | Mean % Visual Injury ([2]; 13DAA1, 180 g ae/ha): 2.3% | Mean % Visual Injury ([2]; 22DAA1, 45 g ae/ha): 0.0% | Mean % Growth Inhibition ([2]; 28DAA1, 180 g ae/ha): 3.8% | Mean % Visual Injury ([2]; 28DAA1, 180 g ae/ha): 3.0% | Mean % Growth Inhibition ([2]; 56DAA1, 45 g ae/ha): 6.0%

CNC.O=C(O)CNCP(=O)(O)O [Glyphosate-DMA]
Mean % Visual Injury Early (14-17) DAT [3, 7]: 0.4% | Mean % Visual Injury Initial (8-10 DAT) [3, 7]: 1% | Mean % Visual Injury Late (42-55 DAT) [3, 7]: 0.2% | Mean % Visual Injury Mid (28-32 DAT) [3, 7]: 1.5%
